In patent US20050130979A1, “Treatment of demyelinating disorders” (Eisai Co., Ltd., priority 1998, published 2005):
“Also recorded” adds a separate entry of the source.

System: Lewis rat acute EAE
Test: Acute-active EAE in Lewis rats (MBP immunisation), clinical disease scoring and weight
Type: in vivo
Conditions: for Incidence (%) / Incidence (animals with neurological deficit / group): Lewis rat acute EAE; for Duration / Onset / Peak Disease Score / Cumulative Disease Score / Weight Loss: mean; for Peak Disease Score: scale 0-5; for Cumulative Disease Score: summation of daily scores; for neurological deficits during acute EAE (in words) / cumulative disease score relative to vehicle treatment (in words) / disease duration relative to vehicle treatment (in words) / peak disease score relative to vehicle treatment (in words) / severity of paralysis during EAE (in words) / disease onset relative to vehicle treatment (in words): rats; for neurological deficits during acute EAE (in words): following treatment; for severity of paralysis during EAE (in words): vs vehicle
Experimental: Female Lewis rats (205+10 g) obtained from Charles River, Kent, UK, were housed in pairs under environmentally controlled conditions (6:00 a.m.-6:00 p.m. light/dark cycle; 22-24° C.; 45-55% humidity) and allowed free access to food and water. […] Female Biozzi mice (20±5 g) obtained from Harlan, UK, were housed under the conditions described above. Experimental groups consisted of 7-10 animals.
Rats were immunised in each hind foot with 50 μl of inoculum containing 50 μg guinea pig myelin basic protein (MBP, prepared by the method of Dunkley and Carnegie (1974); final concentration […]), emulsified in Freund's complete adjuvant (CFA; Sigma, UK) containing Mycobacterium tuberculosis H37Ra (final concentration 5.5 mg/ml; Difco Laboratories, UK).
Animals were weighed and monitored daily and clinical disease scored as (0) no clinical signs; (1) flaccid tail and weight loss; (2) hind limb hypotonia with further weight loss; (3) complete hind limb paralysis; (4) paraplegia and (5) death. […] During the period of compound administration (10-16 days post immunisation; dpi) animals were scored 15 h after injection of vehicle or NBQX to avoid any acute effect of treatment on disease score.
NBQX was initially dissolved in NaOH and diluted with water. pH was adjusted with HCl. Rats were injected i.p. twice daily (9 a.m. and 5 p.m.) on days 10 to 16 post immunisation with either vehicle or NBQX in the dose of 30 mg/kg. Mice were injected i.p. either twice daily (9 a.m. and 5 p.m.) on days 10 to 16 post immunisation or once daily (9 a.m.) on days 26 to 42 post immunisation with either vehicle or NBQX in the dose of 30 mg/kg.
GYKI53773 was suspended in 5% cremophore in saline. Rats were injected i.p. twice daily (9 a.m. and 5 p.m.) on days 10 to 16 post immunisation with either vehicle or GYKM53773 in the dose of 30 mg/kg.
GYKM52466 was suspended in 5% cremophore in water. Rats were injected i.p. twice daily (9 a.m. and 5 p.m.) on days 10 to 16 post immunisation with either vehicle or GYKI52466 in the dose of 30 mg/kg.
BIIR561 was suspended in 5% cremophore in water. Rats were injected i.p. twice daily (9 a.m. and 5 p.m.) on days 10 to 16 post immunisation with either vehicle or BIIR561 in the dose of 30 mg/kg.
CP465022 was suspended in 5% cremophore in water. Rats were injected i.p. twice daily (9 a.m. and 5 p.m.) on days 10 to 16 post immunisation with either vehicle or CP465022 in the dose of 10 mg/kg.
MPQX was initially dissolved in NaOH and diluted with water. pH was adjusted with HCl. Rats were injected i.p. twice daily (9 a.m. and 5 p.m.) on days 10 to 16 post immunisation with either vehicle or MPQX in the dose of 10 mg/kg.

[1] = GYKI53773 30 mg/kg i.p. twice daily 10-16 dpi
[2] = 30 mg/kg i.p. twice daily 10-16 dpi
[3] = 30 mg/kg i.p. twice daily 10-16 dpi, 30 mg/kg
[4] = GYKI52466 30 mg/kg i.p. twice daily 10-16 dpi
[5] = MPQX 10 mg/kg i.p. twice daily 10-16 dpi
[6] = 10 mg/kg i.p. twice daily 10-16 dpi
[7] = 10 mg/kg i.p. twice daily 10-16 dpi, 10 mg/kg
[8] = BIIR561 30 mg/kg i.p. twice daily 10-16 dpi
[9] = CP465022 10 mg/kg i.p. twice daily 10-16 dpi

Molecule: (−)1-(4-aminophenyl)-4-methyl-7,8-methylenedioxy-4,5-dihydro-^3-methylcarbamoyl-2,3-benzodiazepine [GYKI53773]
- Incidence (%) [1]: (60) %
- Incidence (animals with neurological deficit / group) [1]: 6/10
- Duration [1]: 1.9 days
- Onset (n = 6 for GYKI53773, 30 mg/kg i.p. twice daily 10-16 dpi): 12.7 d.p.i.
- Peak Disease Score [1]: 0.9
- Cumulative Disease Score [1]: 2.1
- Weight Loss (weight on cessation of experiment (20 dpi) as percent of maximum weight before disease onset, GYKI53773 30 mg/kg i.p. twice daily): 16%
- neurological deficits during acute EAE (in words): reduced neurological deficits
- cumulative disease score relative to vehicle treatment (in words) [2]: significantly reduced
- disease duration relative to vehicle treatment (in words) [2]: significantly reduced
- peak disease score relative to vehicle treatment (in words) [3]: significantly reduced
- peak disease score relative to vehicle treatment (in words) (30 mg/kg i.p. twice daily 10-16 dpi, listed as GYKM53773, 30 mg/kg): significantly reduces
- severity of paralysis during EAE (in words) [2]: reduces the severity of paralysis

Molecule: CC1=NN=C(c2ccc(N)cc2)c2cc3c(cc2C1)OCO3 [GYKI52466, 1-(-aminophenyl)-4-methyl-7,8-methylene-dioxy-5H-2,3-benzodiazepine]
- Incidence (%) [4]: (60) %
- Incidence (animals with neurological deficit / group) [4]: 15/16
- Duration [4]: 4.0 days
- Onset (n = 15, GYKI52466 30 mg/kg i.p. twice daily 10-16 dpi): 11.6 d.p.i.
- Peak Disease Score [4]: 2.4
- Cumulative Disease Score [4]: 8.0
- Weight Loss (weight on cessation of experiment as percent of maximum weight before disease onset, GYKI52466 30 mg/kg i.p. twice daily): 20%
- neurological deficits during acute EAE (in words): reduced neurological deficits
- cumulative disease score relative to vehicle treatment (in words) [2]: significantly reduced
- peak disease score relative to vehicle treatment (in words) [3]: significantly reduced
- severity of paralysis during EAE (in words) [2]: reduces the severity of paralysis

Molecule: O=c1[nH]c2cc(C(F)(F)F)c(N3CCOCC3)cc2n(CP(=O)(O)O)c1=O [MPQX]
- Incidence (%) [5]: (58) %
- Incidence (animals with neurological deficit / group) [5]: 7/12
- Duration [5]: 1.7 days
- Onset (n = 7 for MPQX, 10 mg/kg i.p. twice daily 10-16 dpi): 12.3 d.p.i.
- Peak Disease Score [5]: 1.2
- Cumulative Disease Score [5]: 3.2
- Weight Loss (weight on cessation of experiment (18 dpi) as percent of maximum weight before disease onset, MPQX 10 mg/kg i.p. twice daily): 22%
- neurological deficits during acute EAE (in words): reduced neurological deficits
- cumulative disease score relative to vehicle treatment (in words) [6]: reduced
- disease duration relative to vehicle treatment (in words) [6]: reduced
- disease onset relative to vehicle treatment (in words) [6]: significantly delayed
- peak disease score relative to vehicle treatment (in words) [7]: significantly reduces; also recorded: reduced
- severity of paralysis during EAE (in words) [6]: reduces the severity of paralysis

Molecule: CN(C)Oc1ccccc1-c1nc(-c2ccccc2)no1 [BIIR561, 5-(2-[N,N-dimethylamino]oxy-phenyl)-3-phenyl-1,2,4-oxadiazol]
- Incidence (%) [8]: (100) %
- Incidence (animals with neurological deficit / group) [8]: 16/16
- Duration [8]: 3.9 days
- Onset (n = 16 for BIIR561, 30 mg/kg i.p. twice daily 10-16 dpi): 12.4 d.p.i.
- Peak Disease Score [8]: 2.6
- Cumulative Disease Score [8]: 7.8
- Weight Loss (weight on cessation of experiment as percent of maximum weight before disease onset, BIIR561 30 mg/kg i.p. twice daily): 17%
- neurological deficits during acute EAE (in words): reduced neurological deficits
- cumulative disease score relative to vehicle treatment (in words) [2]: significantly reduced
- peak disease score relative to vehicle treatment (in words) [3]: significantly reduced
- severity of paralysis during EAE (in words) [2]: redcues the severity of paralysis

Molecule: CCN(CC)Cc1cccc(C=Cc2nc3ccc(F)cc3c(=O)n2-c2ccccc2Cl)n1 [CP465022, 3-(2-chlorophenyl)-2-[2-[6-[(diethylamino)methyl]-2-pyridinyl]ethenyl]-6-fluoro-4(3H)-quinazolinone]
- Incidence (%) [9]: (89) %
- Incidence (animals with neurological deficit / group) [9]: 8/9
- Duration [9]: 3.4 days
- Onset (n = 8 for CP465022, 10 mg/kg i.p. twice daily 10-16 dpi): 13.4 d.p.i.
- Peak Disease Score [9]: 2.0
- Cumulative Disease Score [9]: 7.2
- Weight Loss (weight on cessation of experiment as percent of maximum weight before disease onset, CP465022 10 mg/kg i.p. twice daily): 20%
- neurological deficits during acute EAE (in words): reduced neurological deficits
- cumulative disease score relative to vehicle treatment (in words) [6]: reduced
- disease duration relative to vehicle treatment (in words) [6]: reduced
- disease onset relative to vehicle treatment (in words) [6]: significantly delayed
- peak disease score relative to vehicle treatment (in words) [7]: significantly reduces; also recorded: reduced
- severity of paralysis during EAE (in words) [6]: reduces the severity of paralysis
